Source: ChEMBL document CHEMBL1148201, “Penasulfate A, a new alpha-glucosidase inhibitor from a marine sponge Penares sp” (J Nat Prod, 2004)

Experiments:
[1] = Inhibition of yeast alpha-glucosidase G7256; parameters: species or system Saccharomyces cerevisiae
[2] = Inhibition of Saccharomyces cerevisiae recombinant alpha-glucosidase G0660

SMILES | IC50 [1] [µg/mL] | IC50 [2] [µg/mL]
CCCC[C@H]1CCCCCCCCC[C@H](OS(=O)(=O)[O-])[C@H](OS(=O)(=O)[O-])[C@@H](OS(=O)(=O)[O-])CCCCCCCCCCCCC(=O)N2CCC[C@H]2C(=O)O1.[Na+].[Na+].[Na+] [PENAROLIDE SULFATE A1] | 1.2 | 
CCCCCC[C@H](C)CCCCCC[C@H](OS(=O)(=O)[O-])[C@@H](CCCCCCCCCCCCC(=O)N1CCCC[C@@H]1C(=O)OC)OS(=O)(=O)[O-].[Na+].[Na+] [PENASULFATE A] |  | 3.5
CCC[C@H]1CCCCCCCCC[C@H](OS(=O)(=O)[O-])[C@H](OS(=O)(=O)[O-])[C@@H](OS(=O)(=O)[O-])CCCCCCCCCCCCCC(=O)N2CCC[C@H]2C(=O)O1.[Na+].[Na+].[Na+] [PENAROLIDE SULFATE A2] | 1.5 | 
